Consider one compound from patent US7335756B2, “Retinoic acid metabolizing cytochrome P450” (Cytochroma Inc., priority 2001, dated 2008).

SMILES strings stand for the structures.

Test [1] concerns the target T1, P450RAI-3 (Homo sapiens, UniProt Q6V0L0, F447L).
T1 sequence (Q6V0L0 1-522 F447L): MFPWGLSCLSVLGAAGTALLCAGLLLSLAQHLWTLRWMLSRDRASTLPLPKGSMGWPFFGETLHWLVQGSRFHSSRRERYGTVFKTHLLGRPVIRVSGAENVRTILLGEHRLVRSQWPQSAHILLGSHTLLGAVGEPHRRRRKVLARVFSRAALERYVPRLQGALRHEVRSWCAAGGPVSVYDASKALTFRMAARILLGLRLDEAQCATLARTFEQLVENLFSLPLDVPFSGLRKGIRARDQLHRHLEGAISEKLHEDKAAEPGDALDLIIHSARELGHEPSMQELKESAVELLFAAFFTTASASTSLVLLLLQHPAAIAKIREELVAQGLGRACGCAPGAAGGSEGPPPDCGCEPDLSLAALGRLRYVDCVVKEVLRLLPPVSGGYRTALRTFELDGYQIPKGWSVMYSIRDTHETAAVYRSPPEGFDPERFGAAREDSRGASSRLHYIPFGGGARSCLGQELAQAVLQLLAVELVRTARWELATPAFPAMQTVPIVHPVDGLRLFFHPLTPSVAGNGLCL
Nature of the test: [3H]-RA-metabolism inhibition, transient Cos-P450RAI-3 cell-based assay. The arrangement: expressed in transfected cells; host or cells: COS-1 (transient, pcDNA-P450RAI-3, Fugene). As to conditions: at lower concentrations. As for the experimental part: The purpose of these experiments is to determine the specific substrates for P450RAI-3. […] The RA metabolism reaction was started by the addition of 50 ul of [^3H]-RA solution (20000 cpm, 2 nM final concentration). Cells were incubated for 3 hours in a humidified CO2 incubator at 37 degrees Celsius. The reaction was stopped by the addition of 5 ul of 10% acetic acid. Organic and aqueous soluble radio-labelled metabolites were extracted using the Bligh-Dyer procedure.

In test [2] the target is T1, P450RAI-3. As to the kind of experiment: [3H]-RA-metabolism inhibition in Sf9-Bac-P450RAI-3 insect microsomes. It counts as biochemical. The following applies: 2 nM [3H]-RA, NADPH, 1 hour, read-out: ID50 (nM) Sf9-P450RAI-3. As for the experimental part:
Microsomes from P450RAI-3 and CYP26B infected Sf-9 cells were made as follows: exponentially growing cells were harvested, washed with ice-cold PBS, counted then homogenized and sonicated in lysis buffer containing protease inhibitors cocktail (10^8 cells par 5 ml lyses buffer). Since P450RAI-3 is a microsomal cytochrome, it preferably uses NADPH cytochromic P450 reductase and a flavoprotein for activity. The microsomes were isolated by differential centrifugations (10 min at 800×g, than 10 min at 10,000×g and finally the postmitichondirial supernatant was centrifuged at 100,000×g for 60 min using ultracentrifuge (Beckman). The microsomal pellet was isolated and homogenized gently in the storage buffer containing protease inhibitors cocktail. Protein concentration in the microsomal preparation was determined using a […] reaction assay kit with BSA as standards (Pierce). The absorbance at 562 nm of standards (BSA at 1, 0.5, 0.25, 0.125, and 0.0625 mg/ml) and 3 dilutions of microsomes samples (⅕, 1/10 and 1/20) was determined using an automatic microplate reader (μQuant, BioTek instruments Inc.). The protein concentration directly calculated by the software (KCJunior). […] Microsomes were assessed for P450 content by carbon monoxide assay and total P450 content was determined at 3 nmol/ml. […]

In test [3] the target is T1, P450RAI-3. Nature of the test: [3H]-RA-metabolism inhibition in mammalian microsomes from transient P450RAI-3-transfected Cos cells. It counts as biochemical. The arrangement: expressed in transfected cells; host or cells: COS-1 (transient, pcDNA-P450RAI-3, Fugene). The following applies: read-out: ID50 (nM) P450RAI-3. How it is done: RA-metabolism activity was assessed using RA-metabolism microsomes-based assay and Bligh Dyer extraction as follows: Using an automatic repeating-pipette, gently thawed and homogenized microsomes were plated in a 48-well plate in final volume of 150 μl of storage buffer containing 0.5 mg/ml BSA. At indicated concentration 2 μl of compound solution was added to the assay and 2 μl of DMSO was added to MS control (quadruplet) and No-MS control. 50 μl of [^3H]-RA solution (30,000 cpm, 2 nM final concentration) was added. The microsomes assay with the compounds and the [^3H]-ATRA were incubated first for 10 min at 37° C., and then the reaction started by adding 20 μl of NADPH solution (or 1 mM final). After 1-hour incubation the reaction was stopped by adding 5 μl of 10% acetic acid. Organic and aqueous soluble radio-labelled metabolites were extracted using the Bligh-Dyer procedure. Saturated activity obtained in presence of NADPH at 5 μg of microsomes, FIG. 14.
Microsomes prepared from either stable Hela-CYP26-B or transient P450RAI-3-transfected Cos cells were used.

For `CC1=C(/C=C/C(C)=C/C=C/C(C)=C/C(=O)O)C(C)(C)CCC1` [ATRA, all-trans-retinoic-acid], the “competition / inhibition of P450RAI-3” value at P450RAI-3 [1] is “competed”. Also, the IC50 on P450RAI-3 [2] and at P450RAI-3 [3] was 20 nM each time.
